Assay results from patent publication US20080027042A1, “Novel Aminopyridine Derivatives Having Aurora a Selective Inhibitory Action” (priority 2004, published 2008).
Structures can show the parent of a compound that is named as a salt.

Columns and labels:
Aurora B = target: T1, Aurora B (Homo sapiens, UniProt Q96GD4); assay: Aurora B inhibitory action (33P-ATP kinase assay, Kemptide substrate); format: biochemical; details: 100 μM ATP, 30° C., 20 minutes
T1 construct: histidine tag (N); made in house; host or cells: Escherichia coli BL21-CodonPlus(DE3)-RIL
T1 sequence (Q96GD4 whole entry): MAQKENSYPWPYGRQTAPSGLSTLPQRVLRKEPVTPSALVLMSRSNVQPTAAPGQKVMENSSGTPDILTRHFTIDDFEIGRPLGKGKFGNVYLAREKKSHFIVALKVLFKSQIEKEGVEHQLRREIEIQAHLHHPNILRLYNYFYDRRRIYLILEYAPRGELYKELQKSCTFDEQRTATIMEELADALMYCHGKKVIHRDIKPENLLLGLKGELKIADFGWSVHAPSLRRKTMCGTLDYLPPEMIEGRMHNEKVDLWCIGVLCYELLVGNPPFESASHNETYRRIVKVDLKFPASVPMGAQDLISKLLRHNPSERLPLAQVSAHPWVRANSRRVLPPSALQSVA
Source text: Aurora B Inhibitory Action
(1) Purification of Aurora B
(§1) cDNA of Aurora B having histidine tag fused at the amino terminal was integrated into an expression vector, which was then highly expressed in Escherichia coli BL21-CodonPlus(DE3)-RIL cells. The Escherichia coli cells were recovered and solubilized, and then the histidine-tagged […] protein was adsorbed onto a nickel chelate column and eluted from the column with imidazole. The active fraction was desalted with a desalting column to give a pure enzyme.
(2) Measurement of Activity of Aurora B
For measurement of the activity of Aurora B, the substrate used was Kemptide (Lys-Arg-Arg-Ala-Ser-Lys-Gly) (SEQ.ED.NO.: 1), a synthetic peptide purchased from Sigma-Aldrich, Inc. [Certificate of analysis (Upstate, Inc.)].
Reaction was conducted by a partial modification of the method of activity measurement for Aurora A. The amount of the reaction liquid was 21.1 μL, and the composition of the reaction buffer (R2 buffer) was 50 mM Tris-hydrochloride buffer (pH 7.4)/15 mM magnesium acetate/0.2 mM ethylenediamine-N,N,N′,N′-tetraacetate (EDTA). To this, purified Aurora B, 100 μM of a substrate peptide, 100 μM of unlabeled adenosine triphosphate (ATP) and 1 μCi of [γ-^33P] labeled ATP (2,500 Ci/mmole or more) were added, and the mixture was reacted at 30° C. for 20 minutes. Then, 10 μL of 350 mM phosphate buffer was added to the reaction system to stop the reaction. The substrate peptide was adsorbed on a P81 paper filter 96-well plate and then washed with 130 mM phosphate buffer for several times. The radiation activity of the peptide was measured with a liquid scintillation counter. The [γ-^33P] labeled ATP was purchased from Amersham Biosciences Co., Ltd.
(§2) The compound to be tested was added to the reaction system such that a dilution series of the compound in dimethylsulfoxide was first prepared, and 1.1 μL of this solution was added. A control was provided by adding 1.1 μL of DMSO to the reaction system.

Aurora A = target: T2, Aurora A (Homo sapiens, UniProt O14965); assay: Aurora A inhibitory action (33P-ATP kinase assay, Kemptide substrate); format: biochemical; details: 20 μM ATP, 30° C., 20 minutes
T2 construct: histidine tag (N); made in house; host or cells: Escherichia coli BL21-CodonPlus(DE3)-RIL
T2 sequence (O14965 1-403): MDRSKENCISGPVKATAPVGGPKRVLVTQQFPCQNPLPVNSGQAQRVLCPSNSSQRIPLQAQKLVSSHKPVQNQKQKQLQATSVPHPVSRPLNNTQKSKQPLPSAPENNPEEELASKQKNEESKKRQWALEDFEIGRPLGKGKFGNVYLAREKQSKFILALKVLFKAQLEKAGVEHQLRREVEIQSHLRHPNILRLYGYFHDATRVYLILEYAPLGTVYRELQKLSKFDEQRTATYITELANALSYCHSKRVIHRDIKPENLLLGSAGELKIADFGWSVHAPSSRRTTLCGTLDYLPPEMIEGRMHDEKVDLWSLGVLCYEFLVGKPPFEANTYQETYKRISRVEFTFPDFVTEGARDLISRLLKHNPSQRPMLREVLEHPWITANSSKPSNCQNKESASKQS
Source text: Aurora A Inhibitory Action
(1) Purification of Aurora A
as §1, with “A” for “B”, “BL2 1-CodonPlus(DE3)-RIL” for “BL21-CodonPlus(DE3)-RIL”
(2) Measurement of Activity of Aurora A
For measurement of the activity of Aurora A, the substrate used was Kemptide (Lys-Arg-Arg-Ala-Ser-Lys-Gly) (SEQ.ID.NO.: 1), a synthetic peptide purchased from Sigma-Aldrich, Inc. [Certificate of analysis (Upstate, Inc.)].
Reaction was conducted by a partial modification of a method by Upstate, Inc. [Kinase Profiler™ Assay Protocols]. The amount of the reaction liquid was 21.1 μL, and the composition of the reaction buffer (R2 buffer) was 50 mM Tris-hydrochloride buffer (pH 7.4)/15 mM magnesium acetate/0.2 mM ethylenediamine-N,N,N′,N′-tetraacetate (EDTA). To this, purified Aurora A, 100 μM of a substrate peptide, 20 μM of unlabeled adenosine triphosphate (ATP) and 0.5 μCi of [γ-^33P] labeled ATP (2,500 Ci/mmole or more) were added, and the mixture was reacted at 30° C. for 20 minutes. Then, 10 μL of 350 mM phosphate buffer was added to the reaction system to stop the reaction. The substrate peptide was adsorbed on a P81 paper filter 96-well plate and then washed with 130 mM phosphate buffer for several times. The radiation activity of the peptide was measured with a liquid scintillation counter. The [γ-^33P] labeled ATP was purchased from Amersham Biosciences Co., Ltd.
as §2

Cc1nc(-c2cc(CN3CCN(C(=O)c4cccc(Cl)c4F)CC3)nc(Nc3nccs3)c2)no1 [Example 109, 6-((4-(3-chloro-2-fluorobenzoyl)piperazin-1-yl)methyl)-4-(5-methyl-1,2,4-oxadiazol-3-yl)-N-thiazol-2-ylpyridin-2-amine]
IC50 (Aurora B): 520 nM | IC50 (Aurora A): 0.42 nM

O=C(c1cccc(C(F)(F)F)c1F)N1C[C@@H]2C[C@H]1CN2Cc1cncc(Nc2cc[nH]n2)n1 [Example 47, 6-(((lS,4S)-5-(2-fluoro-3-(trifluoromethyl)benzoyl)-2,5-diazabicyclo[2.2.1]hept-2-yl)methyl)-N-1H-pyrazol-3-ylpyrazin-2-amine]
IC50 (Aurora B): 2200 nM | IC50 (Aurora A): 5.5 nM

O=C(c1cccc(Cl)c1F)N1C[C@@H]2C[C@H]1CN2Cc1cccc(Nc2nccs2)n1 [Example 10, 6-(((1S,4S)-5-(3-chloro-2-fluorobenzoyl)-2,5-diazabicyclo[2.2.1]hept-2-yl)methyl)-N-thiazol-2-ylpyridin-2-amine trifluoroacetate]
IC50 (Aurora B): 92 nM | IC50 (Aurora A): 0.49 nM

Cc1cc(Nc2cccc(CN3CCN(C(=O)c4cccc(Cl)c4Cl)CC3)n2)n[nH]1 [Example 26, 6-((4-(2,3-dichlorobenzoyl)piperazin-1-yl)methyl)-N-(5-methyl-1H-pyrazol-3-yl)pyridin-2-amine trifluoroacetate]
IC50 (Aurora B): 450 nM | IC50 (Aurora A): 1.1 nM

O=C(c1cccc(Cl)c1F)N1CCN(Cc2cccc(Nc3ncc(F)s3)n2)CC1 [Example 112, 6-((4-(3-chloro-2-fluorobenzoyl)piperazin-1-yl)methyl)-N-(5-fluorothiazol-2-yl)pyridin-2-amine]
IC50 (Aurora B): 230 nM | IC50 (Aurora A): 0.81 nM

O=C(c1ccoc1)N1CCN(Cc2cccc(Nc3ncc(Cl)s3)n2)CC1 [Example 61, 6-((4-(3-furoyl)piperazin-1-yl)methyl)-N-(5-chlorothiazol-2-yl)pyridin-2-amine]
IC50 (Aurora B): 530 nM | IC50 (Aurora A): 17 nM

O=C(c1cccc(C(F)(F)F)c1Cl)N1CCN(Cc2cccc(Nc3cc[nH]n3)n2)CC1 [Example 18, 6-((4-(2-chloro-3-(trifluoromethyl)benzoyl)piperazin-1-yl)methyl)-N-1H-pyrazol-3-ylpyridin-2-amine trifluoroacetate]
IC50 (Aurora B): 830 nM | IC50 (Aurora A): 1.8 nM

O=C(c1cccc(Br)c1F)N1CCN(Cc2cncc(Nc3cc[nH]n3)n2)CC1 [Example 49, 6-((4-(3-bromo-2-fluorobenzoyl)piperazin-1-yl)methyl)-N-1H-pyrazol-3-ylpyrazin-2-amine trifluoroacetate]
IC50 (Aurora B): 4400 nM | IC50 (Aurora A): 1.4 nM

O=C(c1ccccc1)N1CCCN(Cc2cccc(Nc3ncns3)n2)CC1 [Example 35, 6-((4-benzoyl-1,4-diazepan-1-yl)methyl)-N-1,2,4-thiadiazol-5-ylpyridin-2-amine]
IC50 (Aurora B): 3400 nM | IC50 (Aurora A): 31 nM

NC(=O)c1cc(CN2CCN(C(=O)c3cccc(Cl)c3F)CC2)nc(Nc2nccs2)c1 [Example 87, 2-((4-(3-chloro-2-fluorobenzoyl)piperazin-1-yl)methyl)-6-(thiazol-2-ylamino)isonicotinamide trifluoroacetate]
IC50 (Aurora B): 1400 nM | IC50 (Aurora A): 1.2 nM

O=C(c1cccc(Br)c1F)N1CCN(Cc2cccc(Nc3nccs3)n2)CC1 [Example 12, 6-((4-(3-bromo-2-fluorobenzoyl)piperazin-1-yl)methyl)-N-thiazol-2-ylpyridin-2-amine trifluioroacetate]
IC50 (Aurora B): 400 nM | IC50 (Aurora A): 0.52 nM

O=C(c1cccc(Cl)c1F)N1CCN(Cc2cc(Cn3ccnn3)cc(Nc3nccs3)n2)CC1 [Example 90, 6-((4-(3-chloro-2-fluorobenzoyl)piperazin-1-yl)methyl)-N-thiazol-2-yl-4-(1H-1,2,3-triazol-1-ylmethyl)pyridin-2-amine trifluoroacetate]
IC50 (Aurora B): 860 nM | IC50 (Aurora A): 1.5 nM

O=C(c1cccc(Cl)c1F)N1CCN(Cc2cc(-c3nn[nH]n3)cc(Nc3nccs3)n2)CC1 [Example 105, 6-((4-(3-chloro-2-fluorobenzoyl)piperazin-1-yl)methyl)-4-(2H-tetrazol-5-yl)-N-thiazol-2-ylpyridin-2-amine]
IC50 (Aurora B): 1000 nM | IC50 (Aurora A): 1.4 nM

O=C(c1cc(CN2CCN(C(=O)c3cccc(Cl)c3F)CC2)nc(Nc2nccs2)c1)N1CCCC1 [Example 84, 6-((4-(3-chloro-2-fluorobenzoyl)piperazin-1-yl)methyl)-4-(pyrrolidin 1-ylcarbonyl)-N-thiazol-2-ylpyridin-2-amine trifluoroacetate]
IC50 (Aurora B): 400 nM | IC50 (Aurora A): 0.72 nM

N#Cc1ccccc1C(=O)N1CCN(Cc2cccc(Nc3ncc(Cl)s3)n2)CC1 [Example 70, 6-((4-(2-cyanobenzoyl)piperazin-1-yl)methyl)-N-(5-chlorothiazol-2-yl)pyridin-2-amine]
IC50 (Aurora B): 96 nM | IC50 (Aurora A): 2.4 nM

N#Cc1cnc(Nc2cccc(CN3CCN(C(=O)c4cccc(Cl)c4F)CC3)n2)s1 [Example 43]
IC50 (Aurora B): 460 nM | IC50 (Aurora A): 1.1 nM

Cc1cnc(Nc2cccc(CN3CCN(C(=O)c4cccc(Cl)c4F)CC3)n2)s1 [Example 42, 6-((4-(3-chloro-2-fluorobenzoyl)piperazin-1-yl)methyl)-N-(5-methyl-thiazol-2-yl)pyridin-2-amine trifluoroacetate]
IC50 (Aurora B): 530 nM | IC50 (Aurora A): 1 nM

O=C(c1cccc(F)c1F)N1CCN(Cc2cc(NCC(F)F)cc(Nc3nccs3)n2)CC1 [Example 100, 6-((4-(2,3-difluorobenzoyl)piperazin-1-yl)methyl)-N4-(2,2-difluoroethyl)-N^2-thiazol-2-ylpyridine-2,4-diamine]
IC50 (Aurora B): 1300 nM | IC50 (Aurora A): 2.6 nM

O=C(c1cccc(Cl)c1F)N1C[C@H]2C[C@@H]1CN2Cc1cccc(Nc2nccs2)n1 [Example 11, 6-(((1R,4R)-5-(3-chloro-2-fluorobenzoyl)-2,5-diazabicyclo[2.2.1]hept-2-yl)methyl)-N-thiazol-2-ylpyridin-2-amine]
IC50 (Aurora B): 570 nM | IC50 (Aurora A): 1.3 nM

CNC(=O)c1cc(CN2CCN(C(=O)c3cccc(Cl)c3F)CC2)nc(Nc2nccs2)c1 [Example 85, 2-((4-(3-chloro-2-fluorobenzoyl)piperazin-1-yl)methyl)-N-methyl-6-(thiazol-2-ylamino)isonicotinamide trifluoroacetate]
IC50 (Aurora B): 610 nM | IC50 (Aurora A): 1 nM

O=C(c1cccc(Cl)c1F)N1CCN(Cc2cc(N3CCCC3=O)cc(Nc3nccs3)n2)CC1 [Example 96, 1-(2-((4-(3-chloro-2-fluorobenzoyl)piperazin-1-yl)methyl)-6-(thiazol-2-ylamino)pyridin-4-yl)pyrrolidin-2-one]
IC50 (Aurora B): 690 nM | IC50 (Aurora A): 0.57 nM

O=C(c1cccc(Cl)c1F)N1C[C@@H]2C[C@H]1CN2Cc1cccc(Nc2cc[nH]n2)n1 [Example 23, 6-(((1 S,4S)-5-(3-chloro-2-fluorobenzoyl)-2,5-diazabicyclo[2.2.1]hept-2-yl)methyl)-N-1H-pyrazol-3-ylpyridin-2-amine]
IC50 (Aurora B): 1200 nM | IC50 (Aurora A): 3.6 nM
